Laboratory results taken from patent EP0677293A1, “PHARMACEUTICAL USE OF TERPYRIDINE DERIVATIVE” (priority 1992, dated 1994).
Where two headings read alike, the source gives them in different places.

How the values were obtained:
[1] = tested on: Astroglial cells derived from the mouse forebrain; test: Synthesis-stimulating activity on NGF (NGF level in culture medium by enzyme immunoassay); assay type: cell-based; settings: ratio to DMSO control = 1.0
Description: The activity of accelerating secretion of NGF was evaluated by the following method.
Each compound shown in Table 1 was dissolved in dimethylsulfoxide (DMSO) to adjust the concentration in the range of 2 mg/ml to 10 mg/ml.
Astroglial cells derived from the mouse forebrain (cells that synthesize and secrete NGF)
Astroglial cells obtained from the mouse forebrain were cultured into 8 x 10⁵ cells/ml in Dulbecco's modified Eagle's medium obtained from Gibco, glucose-rich, containing 20% fetal calf serum, 100 units/ml of penicillin and 100 µg/ml of streptomycin. A 0.1 ml/well aliquot was inoculated on a 96-well plate obtained from Falcon and having an area of 0.32 cm² per well and cultured at 37°C in an atmosphere of 5% CO₂. The culture medium was removed 72 hours later and instead, a 0.1 ml/well aliquot of fresh Dulbecco's modified Eagle's medium containing 0.5% bovine albumin powders obtained from Armour, 100 units/ml of penicillin and 100 µg/ml of streptomycin was supplemented to the system followed by culturing at 37°C in 5% CO₂. The above medium containing the compound each having various concentrations was exchanged 72 hours later. For the purpose of comparison, the medium which contains only DMSO was also prepared (control).
The synthesis-stimulating activity on NGF by the compound of the present invention is shown in terms of a ratio when the NGF level in the control containing only DMSO was made 1.0.

[2] = tested on: both common carotid artery-occlusion model Mongolian gerbils; test: Test on delayed neuronal death induced by cerebral ischemia (3 min occlusion of both common carotid arteries, histology of hippocampus after 7 days); assay type: in vivo; settings: for Incidence Frequency of Neuronal Damage -: score 0 (-), normal neurons; for Incidence Frequency of Neuronal Damage +: score 1 (+), a few neurons damaged; for Incidence Frequency of Neuronal Damage ++: score 2 (++), many neurons damaged; for Incidence Frequency of Neuronal Damage +++: score 3 (+++), majority of neurons damaged
Description: Neuronal damages induced by cerebral ischemia was evaluated in the both common carotid artery-occlusion model Mongolian gerbils. Male Monglian gerbils, supplied by Shin Nihon Dobutsu Co., Ltd., Saitama, Japan and weighing 60 to 90 g. The gerbils were anesthetized lightly with ether and placed in the supine position. After local infiltration of xylocaine, both common carotid arteries were exposed through a ventral midline incision. The arteries were then clamped with aneurysm clips for 3 minutes. Thereafter the clips were removed and the skin was sutured. Sham operated animals were treated in the same manner, except that clamping was not done. The animals were anesthetized with ether 7 days after the bilateral common carotid arteries had been occluded for 3 minutes, and the brains were perfused with a 10% buffered formalin solution given through the left cardiac ventricle. The hippocampal region was cut coronally into 3- to 4-mm thick slices, embedded in paraffin and processed using the step section technique. The preparations were stained with hematoxylin and eosin. Ischemic neuronal damage was graded on 4 levels from scores 0 to 3: score 0 (-), normal neurons; score 1 (+), a few neurons damaged (as few as one neuron damaged); score 2 (++), many neurons damaged; and score 3 (+++), majority of neurons damaged. Compounds to be tested were suspended in gum arabic or dissolved in physiological saline, which was intraperitoneally given at determined times in doses of 10 mg/kg to 100 mg/kg, before and after the induced ischemia.

[3] = tested on: Cerebral cortical neuronal cells from an 18-day-old rat embryo; test: Test on neurotrophic activity (living cells counted by fluorescein diacetate fluorescence, with or without hypoxic load); assay type: cell-based
Description: The neurotrophic activity was determined by the following method. Each compound was dissolved in DMSO to adjust the concentration in the range of 2 mg/ml to 10 mg/ml. Cerebral cortical neuronal cells from an 18-day-old rat embryo […] After 24 hours of incubation, the culture medium was removed and a 0.5 ml/well aliquot of a serum-free fresh DF medium containing the respective compounds having various concentrations, 5 µg/ml of transferrin, 5 µg/ml of insulin and 20 pmoles/ml of progesterone was supplemented to the system. For the purpose of comparison, the medium containing only DMSO was added was also prepared. At this stage, the two same plates were used. After 72 hours of incubation in various medium, hypoxia was loaded on one plate by reducing the concentration of oxygen to the minimum concentration of 1% using a N₂-O₂-CO₂ incubator (manufactured by Tabai, Model BNP-100) and culturing for 4 hours under the conditions. Another plate was cultured in an atmosphere of 5% CO₂ and 95% air, without hypoxic load. After the incubation was continued for further 48 hours, living cells were counted. The culture medium was removed and fluorescein diacetate (FDA) reagent was reacted. After washing with phosphate buffer, pH 7.4, the fluorescent intensity (E x 485/Em 530) was measured by CytoFlour^TM 2300, manufactured by Millipore.

[4] = dose 100 mg/kg, intraperitoneally, immediately after ischemia
[5] = dose 10, intraperitoneally, 30 mins after ischemia
[6] = dose 10, intraperitoneally, 1 hour after ischemia
[7] = dose 10, intraperitoneally, immediately after ischemia
[8] = no hypoxic load, ratio of fluorescent intensity to DMSO control = 1.0, read-out: Neurotrophic Activity No Hypoxic Load
[9] = 4 h, hypoxic load (1% oxygen, 4 hours), ratio of fluorescent intensity to DMSO control = 1.0, read-out: Neurotrophic Activity Hypoxic Load
[10] = dose 100 mg/kg, intraperitoneally, before 30 mins

| Structure (SMILES) | fold induction at 100 µg/mL ([1]; Mus musculus, 24 h, 100 µg/ml) | Incidence Frequency of Neuronal Damage - [2, 4] [%] | Incidence Frequency of Neuronal Damage + [2, 4] [%] | Incidence Frequency of Neuronal Damage ++ [2, 4] [%] | Incidence Frequency of Neuronal Damage +++ [2, 4] [%] | fold induction at 10 µg/mL ([1]; Mus musculus, 24 h) | fold induction at 30 µg/mL ([1]; Mus musculus, 24 h) | viability at 2 µg/mL [3, 8] [%] | viability at 10 µg/mL [3, 8] [%] | viability at 2 µg/mL [3, 9] [%] | viability at 10 µg/mL [3, 9] [%] | further results |
| --- | --- | --- | --- | --- | --- | --- | --- | --- | --- | --- | --- | --- |
| Cc1ccc(-c2cc(-c3ccccn3)nc(-c3ccccn3)c2)cc1 [Compound 5, 4'-(4-Methylphenyl)-2,2':6',2''-terpyridine] | 9.8 | 25 | 50 | 0 | 25 | – | – | – | – | – | – | fold induction at 20 µg/mL ([1]; Mus musculus, 24 h, 20 µg/ml): 10.1 |
| Cc1ccc(-c2cc(-c3ccccn3)nc(-c3ccccn3)c2)cc1.Cl.Cl.Cl [Compound 6, 4'-(4-Methylphenyl)-2,2':6',2''-terpyridin trihydrochloride] | – | – | – | – | – | 2 | 3.3 | – | – | – | – | Synthesis-Stimulating Activity on NGF ([1]; 100 µg/ml, 24 hours): 5.0; damages of the hippocampal CAl neurons ([2]; intraperitoneally given 30 minutes after or an hour after the ischemia had been induced): prevented damages of the hippocampal CAl neurons; Incidence Frequency of Neuronal Damage - [2, 5]: 25%; Incidence Frequency of Neuronal Damage - [2, 6]: 0%; Incidence Frequency of Neuronal Damage - [2, 7]: 0%; Incidence Frequency of Neuronal Damage + [2, 5]: 37.5%; Incidence Frequency of Neuronal Damage + [2, 6]: 50%; Incidence Frequency of Neuronal Damage + [2, 7]: 75%; Incidence Frequency of Neuronal Damage ++ [2, 5]: 12.5%; Incidence Frequency of Neuronal Damage ++ [2, 6]: 25%; Incidence Frequency of Neuronal Damage ++ [2, 7]: 0%; Incidence Frequency of Neuronal Damage +++ [2, 5]: 25%; Incidence Frequency of Neuronal Damage +++ [2, 6]: 25%; Incidence Frequency of Neuronal Damage +++ [2, 7]: 25% |
| CCCCCCCCCCCCCCCCC(CCCCCCCCCCCCCCCC)c1cc[n+](Cc2ccc(-c3cc(-c4ccccn4)nc(-c4ccccn4)c3)cc2)cc1.[Br-] [Compound 29, 4-(1-Hexadecylheptadecyl)-1-[4-(2,2':6',2''-terpyridin-4'-yl)phenylmethyl]pyridinium bromide] | 13 | – | – | – | – | 2 | 7.6 | 610 | 570 | 500 | 300 | fold induction at 3 µg/mL ([1]; Mus musculus, 24 h, 3 µg/ml): 1; Incidence Frequency of Neuronal Damage - [2, 10]: 42.9%; Incidence Frequency of Neuronal Damage + [2, 10]: 14.3%; Incidence Frequency of Neuronal Damage ++ [2, 10]: 14.3%; Incidence Frequency of Neuronal Damage +++ [2, 10]: 28.6% |
| c1ccc(-c2cc(-c3ccncc3)cc(-c3ccccn3)n2)nc1 [Compound 30, 4'-(4-Pyridyl)-2,2':6',2''-terpyridine] | – | 100 | 0 | 0 | 0 | 1.2 | – | 420 | 120 | 530 | 130 | fold induction at 2 µg/mL ([1]; Mus musculus, 24 h, 2 µg/ml, 24 hours, read-out: Synthesis-Stimulating Activity on NGF): 1; fold induction at 50 µg/mL ([1]; Mus musculus, 24 h, 50 µg/ml, 24 hours, read-out: Synthesis-Stimulating Activity on NGF): 1.2 |
